Assay results as given in ChEMBL document CHEMBL6153037, “Developing dual-responsive quinolinium prodrugs of 8-hydroxyquinoline by harnessing the dual chelating sites” (Eur J Med Chem, 2025).
Calls of active or inactive are those of the source. The rule behind the calls is not given here.

Legend:
[1] = Prodrug conversion in PBS at pH 7.4 containing H2O2 assessed as PBAPE intermediate with exposed quinoline nitrogen by measuring retention time at 50 uM measured for 30 mins by HPLC analysis; assay type: ADME; details: buffer, pH 7.4, 0.5 h
[2] = Prodrug conversion in PBS at pH 7.4 exposed to UV assessed as 8-HQ release by measuring retention time at 50 uM measured for 30 mins by HPLC analysis; assay type: ADME; details: buffer, pH 7.4, 0.5 h
[3] = Prodrug conversion in PBS at pH 7.4 exposed to UV assessed as 8-Hydroxy-1-(4-(4,4,5,5-tetramethyl-1,3,2-dioxaborolan-2-yl)benzyl)quinolin-1-ium bromide metabolite formation by measuring retention time at 50 uM measured for 30 mins by HPLC analysis; assay type: ADME; details: buffer, pH 7.4, 0.5 h
MDA-MB-231 [4] = assay: Cytotoxicity against human MDA-MB-231 cells incubated for 48 hrs in presence of UV by MTT assay; assay type: functional, cell-based
MDA-MB-231 [5] = assay: Cytotoxicity against human MDA-MB-231 cells incubated for 48 hrs in absence of UV by MTT assay; assay type: functional, cell-based
MCF-10A = assay: Cytotoxicity against human MCF-10A cells exposed to UV incubated for 48 hrs by MTT assay; assay type: toxicity, cell-based
MDA-MB-231 [6] = assay: Induction of apoptosis in human MDA-MB-231 cells assessed as viable cells incubated for 24 hrs in presence of UV by Annexin V-FITC/PI staining based flow cytometry (reference value: 92.06 %); assay type: functional
MDA-MB-231 [7] = assay: Induction of apoptosis in human MDA-MB-231 cells assessed as early apoptotic cells incubated for 24 hrs in presence of UV by Annexin V-FITC/PI staining based flow cytometry (reference value: 1.94 %); assay type: functional
MDA-MB-231 [8] = assay: Induction of apoptosis in human MDA-MB-231 cells assessed as late apoptotic cells incubated for 24 hrs in presence of UV by Annexin V-FITC/PI staining based flow cytometry (reference value: 2.4 %); assay type: functional
MDA-MB-231 [9] = assay: Induction of apoptosis in human MDA-MB-231 cells assessed as necrotic cells incubated for 24 hrs in presence of UV by Annexin V-FITC/PI staining based flow cytometry (reference value: 3.6 %); assay type: functional
MDA-MB-231 [10] = assay: Induction of apoptosis in human MDA-MB-231 cells assessed as viable cells incubated for 24 hrs by Annexin V-FITC/PI staining based flow cytometry (reference value: 92.06 %); assay type: functional
MDA-MB-231 [11] = assay: Induction of apoptosis in human MDA-MB-231 cells assessed as early apoptotic cells incubated for 24 hrs by Annexin V-FITC/PI staining based flow cytometry (reference value: 1.94 %); assay type: functional
MDA-MB-231 [12] = assay: Induction of apoptosis in human MDA-MB-231 cells assessed as late apoptotic cells incubated for 24 hrs by Annexin V-FITC/PI staining based flow cytometry (reference value: 2.4 %); assay type: functional
MDA-MB-231 [13] = assay: Induction of apoptosis in human MDA-MB-231 cells assessed as necrotic cells incubated for 24 hrs by Annexin V-FITC/PI staining based flow cytometry (reference value: 3.6 %); assay type: functional
MDA-MB-231 [14] = assay: Induction of cell cycle arrest in human MDA-MB-231 cells assessed as accumulation at G0/G1 phase by PI staining based flow cytometry (reference value: 43.25 %); assay type: functional
MDA-MB-231 [15] = assay: Induction of cell cycle arrest in human MDA-MB-231 cells assessed as accumulation at G0/G1 phase in presence of UV by PI staining based flow cytometry (reference value: 43.25 %); assay type: functional
MDA-MB-231 [16] = assay: Inhibition of mitochondrial membrane potential in human MDA-MB-231 cells incubated for 24 hrs by JC-1 dye based analysis (reference value: 5.51 %); assay type: functional
MDA-MB-231 [17] = assay: Inhibition of mitochondrial membrane potential in human MDA-MB-231 cells incubated for 24 hrs in presence of UV by JC-1 dye based analysis (reference value: 5.51 %); assay type: functional
[18] = Hepatorenal toxicity in ICR mouse assessed as change in ALT level at 30 mg/kg, iv measured after 48 hrs; assay type: organism-based; details: in vivo
[19] = Hepatorenal toxicity in ICR mouse assessed as change in AST level at 30 mg/kg, iv measured after 48 hrs; assay type: organism-based; details: in vivo
[20] = Hepatorenal toxicity in ICR mouse assessed as change in BUN level at 30 mg/kg, iv measured after 48 hrs; assay type: organism-based; details: in vivo
[21] = Hepatorenal toxicity in ICR mouse assessed as change in serum creatinine level at 30 mg/kg, iv measured after 48 hrs; assay type: organism-based; details: in vivo

SMILES: Br.CC1(C)OB(c2ccc(C[n+]3cccc4cccc(OCc5ccccc5[N+](=O)[O-])c43)cc2)OC1(C)C
- Retention_time [1]: 14.8 min
- Retention_time [2]: 3.6 min
- Retention_time [3]: 16.4 min
- Activity (MDA-MB-231 [4]): Dose-dependent-effect
- Activity (MDA-MB-231 [5]): inactive
- Activity (MCF-10A): Non-toxic
- Activity (MDA-MB-231 [6]): 52.82%
- Activity (MDA-MB-231 [7]): 23.32%
- Activity (MDA-MB-231 [8]): 19.66%
- Activity (MDA-MB-231 [9]): 4.21%
- Activity (MDA-MB-231 [10]): 80.18%
- Activity (MDA-MB-231 [11]): 8.03%
- Activity (MDA-MB-231 [12]): 10.76%
- Activity (MDA-MB-231 [13]): 1.03%
- Activity (MDA-MB-231 [14]): 45.12%
- Activity (MDA-MB-231 [15]): 58.23%
- inhibition (INH) (MDA-MB-231 [16]): 15.85%
- inhibition (INH) (MDA-MB-231 [17]): 62.81%
- Activity [18]: Non-toxic
- Activity [19]: Non-toxic
- Activity [20]: Non-toxic
- Activity [21]: Non-toxic
